Data as given in patent US20250250308A1, “METHODS AND COMPOSITIONS WITH ANTIFUNGAL ACTIVITY” (priority 2022, published 2025).
Several values for one entry are separate records, joined by “and”; a condition that tells them apart may be missing. Equal values may be shown once. Entries after “also recorded” stand apart in the source; their conditions may differ.

B1: EntV: 68 amino acid active C-terminal form of the E. faecalis bacteriocin EntV (SEQ ID NO: 14) (protein, listed as Enterococcus faecalis)
chain: LGSCVANKIKDEFFAMISISAIVKAAQKKAWKELAVTVLRFAKANGLKTNAIIVAGQLALWAVQCGLS

Tests used:
[1] = tested on: C. albicans; experiment: Killing of C. elegans by C. albicans (survival of infected nematodes); type: in vivo; settings: for Median survival: C. albicans infected C. elegans exposed to 1 nM peptide, one value per trial
Method: The α7 helix is sufficient to protect C. elegans and inhibit surface adhesion. Based on this structural characterization, fragments of EntV were examined to identify those structural moieties that retained antifungal activity. Synthetic peptides were generated of each of the four alpha helices (plus two flanking amino acids) from the active C-terminus of EntV—α4, α5, α6 and α7 (FIG. 1A) as well as an α4-α6 construct. The peptides were tested for their ability to protect C. elegans against C. albicans infection as established in previous work (Cruz et al., 2013; Graham et al., 2017).
Killing of C. elegans by C. albicans. The methodology used for the C. elegans infection assays was performed, with a few modifications, as described ((Breger et al., 2007; Cruz et al., 2013; Graham et al., 2017; Peleg et al., 2008)). Briefly, C. elegans glp-4(bn2); sek-1(km-4) (Breger et al., 2007) nematodes were propagated and maintained on E. coli strain OP50(Brenner, 1974) that was seeded onto nematode growth medium (NGM) agar using standard techniques (Hope, 1999). To synchronize the animals, L1 stage worms on non-starved plates were washed off, filtered through a 10 μm filter (pluriSelect, pluriStrainer 10 μm), harvested by centrifugation, transferred to OP50 seeded plates, and grown to the L4 stage. To prepare the infection plates, C. albicans strain […] (Gillum et al., 1984) was grown in YPD broth for 24 h at 37° C. with agitation. 500 μl of the culture was plated onto BHI solid medium containing gentamycin (10 μg/ml) and grown for 24 h at 37° C. The synchronized, L4 C. elegans were washed off the OP50 plates in 2 ml sterile M9 buffer and washed once, centrifuging at 750×g for 30 seconds to collect animals. Animals were infected by placing them on the SC5314 lawn for 4 h at 25° C. Following this exposure, they were washed off the plate and washed four times with 2 ml of sterile M9. The nematodes were then pipetted (˜30 per well with 2 wells per condition for a total of ˜60 worms assayed) into six-well plates with 2 ml of liquid medium (20% BHI broth and 80% M9) containing the indicated concentrations of test compounds. Plates were incubated at 25° C., and worm death was scored daily. Kaplan-Meier survival curves were generated and analyzed as described in the quantification and statistical analysis section.

[2] = tested on: Lactobacillus sakei ATCC 15521; experiment: Lactobacillus MIC assay (growth in liquid culture); type: cell-based
Method: FIG. 8: EntV fragments have no inhibitory activity against Lactobacillus sakei. L. sakei was cultured in Lactobacilli MRS broth overnight and diluted 1/10 into fresh medium to which EntV and EntV fragments were added at various concentrations. After 24 hours of growth at 30° C., the OD625 readings were taken.
Lactobacillus MIC Assay. For this assay, Lactobacillus sakei ATCC 15521 (Torriani et al., 1996) was used following the methodology as described with a few modifications (Chang et al., 2011). Briefly L. sakei was grown in Lactobacilli MRS broth (Difco, Detroit, MI, USA) for 18 h at 30° C. without agitation (Malheiros et al., 2015). Following adjustment to a concentration of 1×10^6 cells/ml, cells were diluted 1:10 into fresh MRS medium containing the indicated concentrations of EntV fragments. After 24 hours of growth at 30° C. without agitation, OD625 readings were taken using a BioTek Cytation5 plate reader. Readings of blanks (containing fresh MRS medium) were subtracted from sample wells. Three technical replicates were averaged, and the experiment was repeated three times.

[3] = tested on: C. albicans; experiment: Mouse OPC (oropharyngeal candidiasis) model; type: in vivo
Method: Mouse OPC model. The efficacy of EntV fragments were tested in the OPC model as described (Graham et al., 2017; Solis and Filler, 2012). Mice were immunosuppressed by injecting 225 mg/kg cortisone acetate subcutaneously 1 d before inoculation, and subsequently on days 1 and 3 of the infection. Group size was 6-8. To prepare the inoculum, 1 ml of C. albicans (SC5314) overnight culture grown at 30° C. in YPD broth was washed twice in PBS before resuspension in sterile Hanks' balanced salt solution (HBSS) at a concentration of 1×10^6 cells/mL. Calcium alginate swabs were soaked in this inoculum for 5 minutes prior to inoculation. Mice were anesthetized using ketamine and xylazine and placed on pre-warmed isothermal pads and the swabs were placed sublingually for 75 min. Mice were given additional doses of ketamine (50 mg/kg), as necessary. After inoculation, mice were given drinking water with EntV fragments or DMSO (0.01%) in the drinking water ad libitum. Mice were euthanized at 5 d after inoculation, unless noted. The tongues were excised and cut in half laterally for tissue histology and assessment of fungal burden.
For tissue histology the tongue sample was placed in 10% zinc-buffered formalin overnight and stored in 80% ethanol, before embedding in paraffin. For each tongue, 5 μm sections were prepared using a Leica microtome and stained using Periodic Acid-Schiff (PAS) stain. Epithelial invasion was measured from 40× images taken of the entire tissue section of each tongue half with the total area of epithelium and infected epithelium were measured using ImageJ (version 1.6). Measurements were totaled and expressed as a percentage of total infected epithelium relative to the entire epithelial area (Graham et al., 2017; Moyes et al., 2016).
For examination of fungal burden, qPCR was used by amplifying a 269-bp fragment of the internal transcribed spacer 2 (ITS2) between the 5.8S and 28S ribosomal RNA genes of C. albicans (Graham et al., 2017; Khot et al., 2009). DNA was extracted from homogenized tongue tissue using the Yeast DNA Extraction Kit (Thermo Scientific) according to the protocol with minor modifications. The ITS2 fragment was amplified by qPCR was performed with a CFX96 Real-Time System with a C1000 Touch thermal cycler (BioRad). C. albicans gDNA was quantified using FastStart Universal SYBR Green master mix with ROX (Roche). To screen for contamination and background fluorescence during the qPCR amplification, no template controls were used.

[4] = 10 nM and 1 nM in drinking water
[5] = 100 nM in drinking water for 5 days following inoculation
[6] = 100 nM starting at day three, sacrificed on day five

Row | Molecule | Protection of C. elegans from C. albicans infection (survival) ([1]; 1 nM peptide) | Median survival [1] | Antibacterial (bacteriocin) activity against L. sakei ([2]; various concentrations, 24 hours) | Epithelial invasion [3, 4] | Fungal burden on the tongue [3, 4] | Fungal burden ([3]; 50 nM in drinking water) | Hyphal invasion ([3]; 50 nM in drinking water) | Hyphal invasion relative to fluconazole ([3]; 100 nM and 500 nM vs. 4 μg/mL fluconazole) | Fungal burden in the tongue (C. albicans DNA by qPCR) [3, 5] | Hyphal (epithelial) invasion of the tongue ([3]; 100 nM in drinking water for 5 days following inoculation, listed as 12-mer) | Fungal burden, treatment of established infection [3, 6] | Hyphal invasion, treatment of established infection [3, 6] | Fungal burden relative to fluconazole ([3]; 100 nM vs. 4 μg/mL fluconazole, day 5) | Lowest concentration abrogating growth of L. sakei ([2]; liquid culture, 24 hours at 30° C., OD625)
1 | VAGQLALWAVQC [12aa] | as effective in protecting against C. albicans infection in the worm model and inhibiting surface adhesion as full-length EntV | 11 days and 10 days and 12 days and 10.5 days and 9.5 days | no longer had bacteriocin activity | the reduction in invasion remains dramatic | only a slight reduction in fungal burden on the tongue | loss of efficacy in terms of fungal burden | still a significant lowering of hyphal invasion | slightly less prevalent | equally effective | at least as effective as the full length EntV; also recorded: most reduced | significantly less fungal burden compared to both groups of untreated animals | The same patterns were observed | even more effective at reducing fungal burden than 4 μg/mL fluconazole | 
2 | B1 |  | 11 days and 10.5 days and 13 days and 12 days and 10 days and 9.5 days and 9 days |  |  |  |  |  |  | significantly reduced the fungal burden |  |  |  |  | ≤ 10 nM
